From patent EP4744657A1, “THERAPEUTIC AGENT FOR HUMAN GRAFT VERSUS HOST DISEASE AND COMBINATION THEREOF” (National University Corporation Okayama University, priority 2023, dated 2025)
Where “and” joins values, the source holds several entries; their conditions need not be identical. Equal entries are not always repeated.

What was measured:
[1] = test system: chronic graft versus host disease (chronic GVHD); experiment: Clinical study of efficacy and safety of tamibarotene for chronic GVHD (Examples 1 and 2); assay type: in vivo, human; details: for Eyeball: subjects with improvement in Schirmer's test: out of the 18 subjects; for subjects for whom the overall judgment was PR: oral, start 4 mg per day, with PSL/steroid
Method: Tamibarotene was administered to a patient with chronic graft versus host disease (chronic GVHD) after allogeneic hematopoietic stem cell transplantation, and efficacy thereof was studied. Main selection criteria for subjects are as follows: • (A) An age is 18 years or older and younger than 85 years • (B) A Karnofsky performance status (KPS) is 60 or more • (C) A steroid treatment-refractory or steroid treatment-dependent patient who has started treatment with 0.5 mg/kg or more of PSL (prednisolone) (or received corresponding steroid treatment) as a first-line treatment, and who falls under any of the following (1) through (4): • (1) A patient who needs additional treatment because of exacerbation even after 1 mg/kg or more of PSL has been administered for 2 weeks; • (2) A patient who has not been ameliorated after 4 weeks of treatment, including administration of 0.5 mg/kg or more of PSL for 2 weeks, and needs additional treatment. • (3) A patient whose GVHD symptom has relapsed or worsened within a period in which the dose of the steroid was reduced • (4) A steroid treatment-dependent patient for whom a dose reduction from 10 mg/day (or corresponding steroid treatment) is difficult Tamibarotene was administered to 18 subjects. As the administration method, 2 mg tablets of tamibarotene were administered orally for 24 weeks. The administration was started with 2 doses (a 2 mg tablet, twice) after breakfast and dinner, i.e., 4 mg (equivalent to 3 mg/m^2) per day. PSL or steroid administration was also continued daily. 2 mg tablets of tamibarotene were administered orally for 24 weeks. Administration was started at 4 mg (equivalent to 3 mg/m^2) per day, i.e., twice daily after breakfast and dinner (one 2 mg tablet in each of the morning and evening). If an adverse event was mild (grade 0 to 1), the dose could be increased to 8 mg per day (two 2 mg tablets in each of the morning and evening) after 4 weeks of continuation (in a case of 6 mg per day, two 2 mg tablets were to be taken after breakfast and one 2 mg tablet after dinner). In a case of grade 2 for an unexpected adverse event (for which a causal relationship could not be ruled out), or grade 3 for an expected adverse event (for which a causal relationship could not be ruled out), the dose was reduced to 2 mg per day (one tablet once after breakfast), and administration was continued. Alternatively, after a 2-week drug holiday, administration was restarted at 2 mg per day and continued, after confirming that the adverse event had improved to a grade one level lower than that before the drug holiday. However, in regard to an abnormal liver function of grade 3, in a case of a patient who had grade 3 liver dysfunction due to chronic GVHD from before enrollment, administration could be continued without dose reduction or drug holiday, even if the abnormal liver function remained at grade 3. In a case where drug holidays and restarts were repeated with administration at 2 mg per day due to an adverse event, administration could be continued by reducing the dose to 2 mg on alternate days. The survival rate without treatment failure (death, relapse, implementation of additional treatment) at the end of tamibarotene administration (week 24), i.e., failure-free survival (FFS), was evaluated. In a case where additional treatment was implemented for chronic GVHD, such a case was considered treatment failure at that point in time. In regard to the additional treatment herein, a change in the steroid dose was not considered, but in a case where the dose was increased to an amount exceeding 1 mg/kg/day, it was considered that additional treatment had been implemented. [Table 1] For the skin, eyeball, and gastrointestinal tract, the NIH organ-specific scores described in Biol. Blood Marrow Transplant, 2005 11(12), 945-56 were used. For the skin, a therapeutic effect was further evaluated using a total skin score. In addition, the 15-point Schubert scale in Table 2 was used for the oral cavity. […]

[2] = Plasma concentration of active ingredient in patients, measured by HPLC (Example 3); assay type: in vivo, human
Method: To a total of 11 patients, a single dose of 2.0 mg, 4.0 mg, or 6.0 mg of tamibarotene was administered.
Moreover, to a total of 6 patients, repeated doses of 8.0 mg or 10.0 mg of tamibarotene were administered.
For the 2.0 mg dose, one tablet (2 mg of tamibarotene) was administered after breakfast using a tablet of 2 mg tamibarotene; for the 4.0 mg dose, one tablet (2 mg of tamibarotene) was administered after breakfast and one tablet (2 mg of tamibarotene) was administered after dinner; and for the 6.0 mg dose, two tablets (4 mg of tamibarotene) were administered after breakfast and one tablet (2 mg of tamibarotene) was administered after dinner.
For the 8.0 mg dose, two tablets (4 mg of tamibarotene) after breakfast and two tablets (4 mg of tamibarotene) after dinner were administered repeatedly for 35 to 46 days, using a tablet of 2 mg tamibarotene. For the 10.0 mg dose, three tablets (6 mg of tamibarotene) after breakfast and two tablets (4 mg of tamibarotene) after dinner were administered repeatedly for 34 to 59 days, using a tablet of 2 mg tamibarotene. […]

[3] = week 12 of administration, 18 subjects
[4] = week 24, out of the 16 subjects
[5] = week 24 of administration, 5/18
[6] = week 24 of administration, 18 subjects

CC1(C)CCC(C)(C)c2cc(NC(=O)c3ccc(C(=O)O)cc3)ccc21 [tamibarotene, 4-[(5,6,7,8-tetrahydro-5,5,8,8-tetramethyl-2-naphthalenyl)carbamoyl]benzoic acid]
follow-up of single subjects whose overall judgment was PR ([1]; 2 years after the end of treatment, one subject per line): able to discontinue the administration of PSL and reduce the dose of FK506 at 2 years after the end of treatment without exacerbation of chronic GVHD
knee joint flexion ([1]; Case 1, start vs end of administration, 200 days, Fig. 1): notable improvement in knee joint flexion
knee joint extension ([1]; Case 1, start vs end of administration, 200 days, tamibarotene/prednisolone/tacrolimus 4 mg/15 mg/4 mg at start, Fig. 1): notable improvement in knee joint extension
cutis symptom on knee ([1]; Case 2, start vs end of administration, 137 days, Fig. 2): notable amelioration of pigmentation and skin sclerosis in the knee
cutis symptom on lower part of back ([1]; Case 2, start vs end of administration, 137 days, tamibarotene/predonine/tacrolimus 4 mg/11 mg/0.2 mg at start, Fig. 2): amelioration of pigmentation and skin sclerosis in the lower part of the lower back
oral cavity symptom ([1]; Case 3, start vs end of administration, 83 days, tamibarotene/prednisolone/tacrolimus 4 mg/10 mg/0.6 mg, Fig. 3): healing of ulcer and notable amelioration of erythema were seen in the oral cavity
response rate for each organ (Fig. 4), in words ([1]; all cases in Example 1): the effect was seen in chronic GVHD of the eyeball and liver in addition to the skin and the oral cavity, or chronic GVHD maintained without exacerbation
overall response rate ([1]; entire administered population, final analysis, NIH Consensus Development Project Criteria (2005), 6/18, 95% confidence interval 13.3% to 59.0%): 33.3%
overall response rate based on the NIH Consensus Development Project Criteria (2014) ([1]; entire administered population, sensitivity analysis, 7/18 cases, 95% confidence interval 17.3% to 64.3%): 38.9%
NIH response rate for the joints and fascia ([1]; human, in vivo): 11%
response rate for the lung function score ([1]; human, in vivo): unchanged
NIH response rate for the liver ([1]; influence of other diseases difficult to consider): 23%
Eyeball: subjects with improvement in Schirmer's test ([1]; left eye): 7 subjects
NIH response rate for the gastrointestinal tract ([1]; n=5): 20%
NIH response rate for the genitals ([1]; n=6): 17%
amelioration in the symptom after administration ([1]; patients in Examples, no amelioration before with various drugs): amelioration in the symptom was seen in all the patients
Eyeball: subjects with improvement in Schirmer's test ([1]; right eye): 5 subjects
Oral cavity: symptoms ([1]; several subjects): healing of ulcer and notable amelioration of erythema were seen in several subjects
Skin: symptoms ([1]; several subjects): notable amelioration of edema, skin sclerosis, pigmentation, or erythema in several subjects
range of joint motion ([1]; subjects in whom a therapeutic effect was confirmed): notable improvement in the range of joint motion
subjects for whom the overall judgment was SD [1, 3]: 7 subjects
subjects for whom the overall judgment was PR [1, 3]: 5 subjects
subjects in whom the dose of PSL could be reduced by 50% or more ([1]; week 24, compared with start of tamibarotene administration, 18 subjects): 3 subjects
subjects in whom the dose of PSL could be reduced ([1]; week 24, compared with start of treatment, 18 subjects): 7 subjects
Eyeball: NIH response rate ([1]; week 24, 14 subjects): 14%
Eyeball: subjects evaluated as CR ([1]; week 24, 14 subjects): No subject
Eyeball: subjects evaluated as PR ([1]; week 24, 14 subjects): two
Oral cavity: NIH response rate ([1]; week 24, 16 subjects): 25%
Oral cavity: subjects evaluated as CR ([1]; week 24, 16 subjects): Two
Oral cavity: subjects evaluated as PR ([1]; week 24, 16 subjects): two
Skin: NIH response rate ([1]; week 24, 16 subjects): 25%
Skin: subjects evaluated as CR ([1]; week 24, 16 subjects): One
Skin: subjects evaluated as PR ([1]; week 24, 16 subjects): three
Oral cavity: subjects with improved score on the 15-point Schubert scale [1, 4]: 10 subjects
Skin: subjects with improved total skin score [1, 4]: 8 subjects
failure-free survival (FFS) [1, 5]: 28%
response rate [1, 5]: 28%
subjects for whom the overall judgment was SD [1, 6]: 7 subjects
subjects for whom the overall judgment was PR [1, 6]: 5 subjects
Plasma concentration ([2]; after 8 hours from a single dose of 2.0 mg, lowest concentration list, 480 min): 0.00326 µg/mL
Plasma concentration ([2]; after 10 hours from a single dose of 4.0 mg, lowest concentration list, 600 min): 0.00803 µg/mL and 0.00701 µg/mL
Plasma concentration ([2]; after 24 hours from single dose of 6.0 mg, individual values, lowest concentration list, 1440 min): 0.00108 µg/mL and 0.00114 µg/mL and 0.0025 µg/mL
Plasma concentration ([2]; after hours (figure not given) from repeated doses (46 days) of 8.0 mg, highest concentration list): 0.10009 µg/mL
concentration at 4 h ([2]; human, plasma, po, 2 mg, after 4 hours from a single dose of 2.0 mg, lowest concentration list): 0.00898 µg/mL
concentration at 8 h ([2]; human, plasma, po, 2 mg, after 8 hours from a single dose of 2.0 mg, lowest concentration list): 0.00504 µg/mL
concentration at 10 h ([2]; human, plasma, po, 4 mg, after 10 hours from a single dose of 4.0 mg, lowest concentration list): 0.00956 µg/mL
concentration at 4 h ([2]; human, plasma, po, 6 mg, after 4 hours from a single dose of 6.0 mg, highest concentration list): 0.0802 µg/mL
concentration at 4 h ([2]; human, plasma, po, 6 mg, after 4 hours from repeated doses (47 days) of 6.0 mg, highest concentration list): 0.0925 µg/mL
concentration at 6 h ([2]; human, plasma, po, 6 mg, after 6 hours from a single dose of 6.0 mg, lowest concentration list): 0.00742 µg/mL
concentration at 10 h ([2]; human, plasma, po, 6 mg, after 10 hours from a single dose of 6.0 mg, lowest concentration list): 0.00772 µg/mL
concentration at 4 h ([2]; human, plasma, po, 8 mg, after 4 hours from repeated doses (35 days) of 8.0 mg, highest concentration list): 0.0846 µg/mL
concentration at 4 h ([2]; human, plasma, po, 8 mg, after 4 hours from repeated doses (46 days) of 8.0 mg, highest concentration list): 0.0852 µg/mL
concentration at 24 h ([2]; human, plasma, po, 8 mg, after 24 hours from repeated doses (46 days) of 8.0 mg, lowest concentration list): 0.00292 µg/mL
concentration at 2 h ([2]; human, plasma, po, 10 mg, after 2 hours from repeated doses (34 days) of 10.0 mg, highest concentration list): 0.088 µg/mL
concentration at 2 h ([2]; human, plasma, po, 10 mg, after 2 hours from repeated doses (58 days) of 10.0 mg, highest concentration list): 0.199 µg/mL
concentration at 2 h ([2]; human, plasma, po, 10 mg, after 2 hours from repeated doses (59 days) of 10.0 mg, highest concentration list): 0.119 µg/mL
concentration at 4 h ([2]; human, plasma, po, 10 mg, after 4 hours from repeated doses (34 days) of 10.0 mg, highest concentration list): 0.0856 µg/mL
concentration at 4 h ([2]; human, plasma, po, 10 mg, after 4 hours from repeated doses (36 days) of 10.0 mg, highest concentration list): 0.161 µg/mL
concentration at 4 h ([2]; human, plasma, po, 10 mg, after 4 hours from repeated doses (58 days) of 10.0 mg, highest concentration list): 0.0887 µg/mL
concentration at 4 h ([2]; human, plasma, po, 10 mg, after 4 hours from repeated doses (59 days) of 10.0 mg, highest concentration list): 0.0821 µg/mL
concentration at 8 h ([2]; human, plasma, po, 10 mg, after 8 hours from repeated doses (36 days) of 10.0 mg, highest concentration list): 0.112 µg/mL
